ChEMBL document CHEMBL1201862, “PubChem BioAssay data set” (2004)
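Following 48 hours of exposure in 96-well plates, responses at five concentrations were used to interpolate endpoints linearly. Abbreviation: GI50, concentration required for 50% inhibition of growth.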 The source made the active and inactive calls. No stated cut-off is given here; in the data, active = GI50 up to about 1.1 µM and inactive = higher.

Tests used:
Experiment in all cases: growth of human tumour cells (NCI), 48 h
HCT-15 = tested on: HCT-15
OVCAR-5 = tested on: OVCAR-5
SK-MEL-28 = tested on: SK-MEL-28
Malme-3M = tested on: Malme-3M
CCRF-CEM = tested on: CCRF-CEM
IGROV-1 = tested on: IGROV-1
SF-295 = tested on: SF-295
SK-MEL-2 = tested on: SK-MEL-2
ACHN = tested on: ACHN
SK-MEL-5 = tested on: SK-MEL-5
LOX IMVI = tested on: LOX IMVI
SF-268 = tested on: SF-268
MOLT-4 = tested on: MOLT-4
SNB-75 = tested on: SNB-75
RPMI-8226 = tested on: RPMI-8226
K562 = tested on: K562
HCT-116 = tested on: HCT-116
NCI-H226 = tested on: NCI-H226
NCI-H23 = tested on: NCI-H23
NCI-H460 = tested on: NCI-H460

CCc1ncc(C(C)(O)c2ccccc2)n1Cc1ccccc1 (stereo not given)
GI50 (HCT-15): 41.5 µM
GI50 (OVCAR-5): 98.6 µM (inactive)
GI50 (SK-MEL-28): 33.4 µM (inactive)
GI50 (Malme-3M): 41 µM (inactive)
GI50 (CCRF-CEM): 48.9 µM (inactive)
GI50 (IGROV-1): 42.4 µM (inactive)
GI50 (SF-295): > 100 µM (inactive)
GI50 (SK-MEL-2): 70.8 µM (inactive)
GI50 (ACHN): 82.2 µM (inactive)
GI50 (SK-MEL-5): 17.8 µM (inactive)
GI50 (LOX IMVI): 29.8 µM (inactive)
GI50 (SF-268): 99.8 µM (inactive)
GI50 (MOLT-4): 22.5 µM (inactive)
GI50 (SNB-75): 48.6 µM (inactive)
GI50 (RPMI-8226): 32.3 µM (inactive)
GI50 (K562): 33.4 µM (inactive)
GI50 (HCT-116): 0.124 µM (active)
GI50 (NCI-H226): 21.5 µM (inactive)
GI50 (NCI-H23): 5.56 µM (inactive)
GI50 (NCI-H460): 54.7 µM (inactive)
